Literature values in patent EP4756025A1, “DSRNA TARGETING MAPT AND PHARMACEUTICAL USE THEREOF” (Tuojie Biotech (Shanghai) Co., Ltd., priority 2023, dated 2025).

Conditions: octanol-water partition coefficient, example in the definition of lipophilic moiety

## NCCCCCCO [6-aminohexanol]
  logKow: about 0.7

## CC(C)CCC[C@@H](C)[C@H]1CC[C@H]2[C@@H]3CC=C4C[C@@H](OC(=O)NCCCCCCO)CC[C@]4(C)[C@H]3CC[C@]12C [cholesteryl N-(hexan-6-ol)carbamate]
  logKow: 10.7
